For assay [1], the system named is cGAS activity in THP1 cells (IFNb as marker). As to the kind of experiment: Cellular assay to measure cGAS activity (IFNb production in PMA-differentiated THP1 cells stimulated by RDG-Adenovirus-GFP). Type of assay: cell-based, human. As to conditions: PMA differentiated, RDG-Adenovirus-GFP 1000 MOI, IFNb AlphaLISA, overnight incubation, read-out: IC50 (μM), Cellular assay for Compounds 95-348. How it is done:
Cellular assay to measure cGAS activity: Use THP1 cell line from ATCC to determine inhibition of cGAS activity by test compounds in human cells. Plate cells on 96-well plates at 0.2×10^6/well and differentiate with phorbol myristate acetate (PMA) at 37° C./5% CO2. After 24 hours, replace PMA containing media with media lacking PMA and further incubate overnight. Stimulate cells were then by RDG-Adenovirus-GFP (Vector Biolabs #1768) at 1000 MOI for 4 hours prior to the addition of test compounds. After overnight incubation, transfer 10 μL of the media from each well to a new plate for IFNb analysis as a marker for cGAS activity. Measure quantification of IFNb with an IFNb AlphaLISA Detection kit (Perkin Elmer AL3133F) by mixing the acceptor beads with the cell supernatant followed by the addition of the biotinylated antibody and donor beads. Measure the relative fluorescence signal produced from the interaction of the donor and acceptor beads by a PHERAStar AlphaLISA protocol and evaluate the inhibitory effect of a compound by plotting specific inhibition of IFNb production against log concentration of the test compound. Calculate IC50 values using a 4-parameter non-linear logistic equation (y=(S0+((SInf−S0)/(1+((qAC50/x)^nHill))))).
Background: In Alpha technology, singlet oxygen from a donor bead excites a nearby acceptor bead.

Another assay has as its target recombinant human cGAS (Homo sapiens (Human), UniProt Q8N884). Briefly: In vitro inhibition assay of cGAS activity (cGAMP production, RapidFire mass spectrometry). Type of assay: biochemical. The note with it: 10 nM recombinant human cGAS, 60 nM 75-bp dsDNA, ATP, GTP, room temperature 3 hours, read-out: IC50 (μM), In vitro inhibition assay for Compounds 95-348. The gist of the method: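 Product cGAMP was quantified by RapidFire MS against a difluoro-cGAMP internal standard after a formic acid quench. The reaction contained 10 nM recombinant full-length human cGAS, 75-bp dsDNA (60 nM), ATP and GTP (50 μM) and ran for 3 h at room temperature. IC50 values came from 4-parameter nonlinear regression.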

The mark [2] stands for this setting: Homo sapiens, THP-1, THP1 cells.

Where a name gives a salt, the structure may show the parent alone. Read-outs that look alike come from different tables or passages of the source.

Sequence of recombinant human cGAS (Q8N884 whole entry): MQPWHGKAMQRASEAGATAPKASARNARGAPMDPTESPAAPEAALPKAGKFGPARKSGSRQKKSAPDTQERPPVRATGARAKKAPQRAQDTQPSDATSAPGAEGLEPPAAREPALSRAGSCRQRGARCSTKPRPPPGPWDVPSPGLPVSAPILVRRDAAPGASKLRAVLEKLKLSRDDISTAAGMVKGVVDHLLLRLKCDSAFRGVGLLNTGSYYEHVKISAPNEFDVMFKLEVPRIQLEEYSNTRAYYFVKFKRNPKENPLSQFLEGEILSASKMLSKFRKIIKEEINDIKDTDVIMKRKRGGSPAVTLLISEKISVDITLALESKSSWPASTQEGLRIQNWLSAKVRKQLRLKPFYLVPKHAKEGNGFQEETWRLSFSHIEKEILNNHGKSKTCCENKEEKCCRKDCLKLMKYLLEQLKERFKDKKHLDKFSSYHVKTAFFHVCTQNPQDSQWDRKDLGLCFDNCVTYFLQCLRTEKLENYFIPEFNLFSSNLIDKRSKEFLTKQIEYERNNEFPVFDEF

Usually IC50 stands for the point on the concentration scale where inhibition reaches its midpoint. As for `O[C@H]1CC[C@@H](Oc2cc(Cl)c(Cl)c3[nH]cc(-c4cn[nH]c4)c23)C1` (racemic) [Example 100, Cis-3-((6,7-Dichloro-3-(1H-pyrazol-4-yl)-1H-indol-4-yl)oxy)cyclopentan-1-ol (racemic mixture)], the IC50 in assay [1] (setting [2]) was greater than 10 µM; at recombinant human cGAS, 0.0356 µM. Consider `OC[C@@H]1C[C@@H]1Oc1cc(Cl)c(Cl)c2[nH]cc(-c3cn[nH]c3)c12` (racemic) [Example 137, Cis-[2-[[6,7-Dichloro-3-(1H-pyrazol-4-yl)-1H-indol-4-yl]oxy]cyclopropyl]methanol hydrochloride], for which the figures for the IC50 (in assay [1] (setting [2]); on recombinant human cGAS) were 1.38 µM and 0.0165 µM, respectively. Taken in the same sequence, the figures for `O[C@H]1CC[C@H](Nc2cc(Cl)c(Cl)c3[nH]cc(-c4cn[nH]c4)c23)C1` (racemic) [Example 209, trans-3-[[6,7-Dichloro-3-(1H-pyrazol-4-yl)-1H-indol-4-yl]amino]cyclopentanol (racemic mixture)] were 0.351 µM and 0.0158 µM. Taken in the same sequence, the figures for `O[C@@H]1C[C@H](Oc2cc(Cl)c(Cl)c3[nH]cc(-c4cn[nH]c4)c23)[C@@H](O)C1` (racemic) [Example 220, 4-[[6,7-Dichloro-3-(1H-pyrazol-4-yl)-1H-indol-4-yl]oxy]cyclopentane-1,3-diol (racemic mixture)] were 0.556 µM and 0.0301 µM. With `O=C(CO)NC1Cc2c(-c3cn[nH]c3)c3ccc(Cl)c(Cl)c3n2C1` (single isomer, unassigned) [Example 247, N-(5,6-Dichloro-9-(1H-pyrazol-4-yl)-2,3-dihydro-1H-pyrrolo[1,2-a]indol-2-yl)-2-hydroxyacetamide], the results for the IC50 (in assay [1] (THP1 cells); at recombinant human cGAS) were 2.73 µM and 0.0146 µM, respectively. On the same counts, the results for `O=C(CO)NC1Cc2c(-c3cn[nH]c3)c3ccc(Cl)c(Cl)c3n2C1` (single isomer, unassigned) [Example 248, N-(5,6-Dichloro-9-(1H-pyrazol-4-yl)-2,3-dihydro-1H-pyrrolo[1,2-a]indol-2-yl)-2-hydroxyacetamide] are greater than 10 µM and 0.0396 µM.

On to `O=C1NCC(C(=O)N2CCn3c(c(-c4cn[nH]c4)c4ccc(Cl)c(Cl)c43)C2)O1` (single isomer, unassigned) [Example 259, 5-[6,7-Dichloro-10-(1H-pyrazol-4-yl)-3,4-dihydro-1H-pyrazino[1,2-a]indole-2-carbonyl]oxazolidin-2-one], for which the IC50 in assay [1] (THP1 cells) turned out to be 0.765 µM; on recombinant human cGAS, 0.0373 µM.

Take `O=C1NCC(C(=O)N2CCn3c(c(-c4cn[nH]c4)c4ccc(Cl)c(Cl)c43)C2)O1` (single isomer, unassigned) [Example 260, 5-[6,7-Dichloro-10-(1H-pyrazol-4-yl)-3,4-dihydro-1H-pyrazino[1,2-a]indole-2-carbonyl]oxazolidin-2-one]: the IC50 in assay [1] (THP1 cells) came to 4.05 µM; on recombinant human cGAS it was 0.0115 µM. Take `OCC(O)CNc1cc(Cl)c(Cl)c2[nH]cc(-c3cn[nH]c3)c12` (single isomer, unassigned) [Example 261, 3-[[6,7-Dichloro-3-(1H-pyrazol-4-yl)-1H-indol-4-yl]amino]propane-1,2-diol]: the IC50 in assay [1] (setting [2]) was 2.34 µM; on recombinant human cGAS, 0.0452 µM. Turning to `OCC(O)CNc1cc(Cl)c(Cl)c2[nH]cc(-c3cn[nH]c3)c12` (single isomer, unassigned) [Example 262, 3-[[6,7-Dichloro-3-(1H-pyrazol-4-yl)-1H-indol-4-yl]amino]propane-1,2-diol], the IC50 is 3.62 µM in assay [1] (THP1 cells) and 0.0772 µM at recombinant human cGAS. Consider `CC(=O)N1CCOC(CC(=O)N2CCn3c(c(-c4cn[nH]c4)c4ccc(Cl)c(Cl)c43)C2)C1` (single isomer, unassigned) [Example 264, 2-(4-acetylmorpholin-2-yl)-1-(6,7-dichloro-10-(1H-pyrazol-4-yl)-3,4-dihydropyrazino[1,2-a]indol-2(1H)-yl)ethan-1-one], for which the IC50 in assay [1] (setting [2]) is greater than 10 µM; on recombinant human cGAS, 0.0462 µM. On to `CC(=O)N1CCOC(CC(=O)N2CCn3c(c(-c4cn[nH]c4)c4ccc(Cl)c(Cl)c43)C2)C1` (single isomer, unassigned) [Example 265, 2-(4-acetylmorpholin-2-yl)-1-(6,7-dichloro-10-(1H-pyrazol-4-yl)-3,4-dihydropyrazino[1,2-a]indol-2(1H)-yl)ethan-1-one], for which the IC50 was greater than 10 µM in assay [1] (THP1 cells) and 0.0511 µM at recombinant human cGAS. Take `O[C@@H]1C[C@H](Oc2cc(Cl)c(Cl)c3[nH]cc(-c4cn[nH]c4)c23)[C@@H](O)C1` (single isomer, unassigned) [Example 270, 4-[[6,7-Dichloro-3-(1H-pyrazol-4-yl)-1H-indol-4-yl]oxy]cyclopentane-1,3-diol]: the IC50 in assay [1] (THP1 cells) was determined as 0.635 µM; at recombinant human cGAS it was 0.0207 µM. On the same counts, the results for `O[C@@H]1C[C@H](Oc2cc(Cl)c(Cl)c3[nH]cc(-c4cn[nH]c4)c23)[C@@H](O)C1` (single isomer, unassigned) [Example 271, 4-[[6,7-Dichloro-3-(1H-pyrazol-4-yl)-1H-indol-4-yl]oxy]cyclopentane-1,3-diol] are 6.75 µM and 0.184 µM.

In the case of `O=C(CO)NC1CCn2c1c(-c1cn[nH]c1)c1ccc(Cl)c(Cl)c12` (single isomer, unassigned) [Example 345, N-(5,6-Dichloro-9-(1H-pyrazol-4-yl)-2,3-dihydro-1H-pyrrolo[1,2-a]indol-1-yl)-2-hydroxyacetamide], the IC50 in assay [1] (THP1 cells) worked out at 3.97 µM; on recombinant human cGAS, 0.0628 µM. As for `O=C(CO)NC1CCn2c1c(-c1cn[nH]c1)c1ccc(Cl)c(Cl)c12` (single isomer, unassigned) [Example 346, N-(5,6-Dichloro-9-(1H-pyrazol-4-yl)-2,3-dihydro-1H-pyrrolo[1,2-a]indol-1-yl)-2-hydroxyacetamide], the results for the IC50 (in assay [1] (THP1 cells); on recombinant human cGAS) were 0.914 µM and 0.00769 µM, respectively. `OCCC1CCn2c1c(-c1cn[nH]c1)c1ccc(Cl)c(Cl)c12` (single isomer, unassigned; isomer 1) [Example 242, 2-(5,6-Dichloro-9-(1H-pyrazol-4-yl)-2,3-dihydro-1H-pyrrolo[1,2-a]indol-1-yl)ethan-1-ol isomer 1]: the figures for the IC50 (in assay [1] (setting [2]); at recombinant human cGAS) were greater than 10 µM and 0.464 µM, respectively. Taken in the same sequence, the figures for `O[C@H]1CC[C@@H](Nc2cc(Cl)c(Cl)c3[nH]cc(-c4cn[nH]c4)c23)C1` (single isomer, unassigned; isomer 2) [Example 210, Cis-3-[[6,7-Dichloro-3-(1H-pyrazol-4-yl)-1H-indol-4-yl]amino]cyclopentanol, isomer 2] were 2.17 µM and 0.0365 µM. For `OCCC1CCn2c1c(-c1cn[nH]c1)c1ccc(Cl)c(Cl)c12` (single isomer, unassigned; isomer 2) [Example 243, 2-(5,6-Dichloro-9-(1H-pyrazol-4-yl)-2,3-dihydro-1H-pyrrolo[1,2-a]indol-1-yl)ethan-1-ol isomer 2], the IC50 was 9.35 µM in assay [1] (THP1 cells) and 0.0472 µM at recombinant human cGAS. For the compound `O=C(CO)NC1CCc2c(-c3cn[nH]c3)c3ccc(Cl)c(Cl)c3n2C1` (stereo not shown) [Example 95, N-[3,4-Dichloro-10-(1H-pyrazol-4-yl)-6,7,8,9-tetrahydropyrido[1,2-a]indol-7-yl]-2-hydroxy-acetamide], the concentration for half-maximal inhibition (IC50) came out at 2.06 µM in assay [1] (setting [2]) and 0.0159 µM at recombinant human cGAS. `O=C(NC1CCc2c(-c3cn[nH]c3)c3ccc(Cl)c(Cl)c3n2C1)C1CCOCC1` (stereo not shown) [Example 96, N-[3,4-Dichloro-10-(1H-pyrazol-4-yl)-6,7,8,9-tetrahydropyrido[1,2-a]indol-7-yl]tetrahydropyran-4-carboxamide]: the values for the IC50 (in assay [1] (setting [2]); on recombinant human cGAS) were 2.43 µM and 0.0449 µM, respectively.

For `CC(=O)NC1CCc2c(-c3cn[nH]c3)c3c(OCC#N)cc(Cl)c(Cl)c3n2C1` (stereo not shown) [Example 102, N-[3,4-Dichloro-1-(cyanomethoxy)-10-(1H-pyrazol-4-yl)-6,7,8,9-tetrahydropyrido[1,2-a]indol-7-yl]acetamide], the IC50 in assay [1] (setting [2]) came out at 1.28 µM; at recombinant human cGAS, 0.0166 µM. Taken in the same sequence, the figures for `O=C(Cn1cnnc1)NCc1[nH]c2c(Cl)c(Cl)ccc2c1-c1cn[nH]c1` [Example 103, N-((6,7-Dichloro-3-(1H-pyrazol-4-yl)-1H-indol-2-yl)methyl)-2-(4H-1,2,4-triazol-4-yl)acetamide] were greater than 10 µM and 0.051 µM. `Cn1ncnc1COCC(=O)N1CCn2c(c(-c3cn[nH]c3)c3c(OCC#N)cc(Cl)c(Cl)c32)C1` [Example 181]: the IC50 in assay [1] (setting [2]) is greater than 10 µM. Still for that read-out and setting: the same measure for `OCCn1cc(-n2cc(-c3cn[nH]c3)c3ccc(Cl)cc32)nn1` [Example 229]: 2.1 µM; for `NC1CCn2c1c(-c1cn[nH]c1)c1ccc(Cl)c(Cl)c12` (stereo not shown) [Example 241, 5,6-Dichloro-9-(1H-pyrazol-4-yl)-2,3-dihydro-1H-pyrrolo[1,2-a]indol-1-amine]: greater than 10 µM.

For the origin of these results see patent publication US20230391786A1, “cGAS INHIBITORS” (Eli Lilly and Company, priority 2022, published 2023).
